“And” between values parts separate entries of the source, which are not always exact repeats. Equal values may be shown once.
Key:
[1] = human free (unbound) effective therapeutic plasma concentration used to calculate multiples; cited from earlier work
[2] = test system: human ventricular trabeculae; test: Action potential recording and pro-arrhythmic score analysis in human ventricular trabeculae (hVT); details: for EADs incidence / Refractoriness Escape incidence: c1-c4: 2-FOLD;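 as to all read-outs here: sharp microelectrode action potential recordings at 37°C in Tyrode-perfused trabeculae, 4 cumulative concentrations each applied 31 min, values averaged over last 30 APs, vehicle 0.1% DMSO as control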
[3] = 1Hz, 0.1-FOLD free ETPC (0.003µM)
[4] = 1Hz, 1-FOLD free ETPC (0.003µM)
[5] = 1Hz, 10-FOLD free ETPC (0.003µM)
[6] = 1Hz, 100-FOLD free ETPC (0.003µM)
[7] = 2Hz, 0.1-FOLD free ETPC (0.003µM)
[8] = 2Hz, 1-FOLD free ETPC (0.003µM)
[9] = 2Hz, 10-FOLD free ETPC (0.003µM)
[10] = 2Hz, 100-FOLD free ETPC (0.003µM)
[11] = 1Hz, 21-FOLD, 69-OLD, 207-FOLD free ETPC (0.145µM)
[12] = 2Hz, 21-FOLD, 69-OLD, 207-FOLD free ETPC (0.145µM)
[13] = average raw data, 1Hz, c2-c5: 2-FOLD, 21-FOLD, 69-OLD, 207-FOLD free ETPC (0.145µM)
[14] = average raw data, 2Hz, c2-c5: 2-FOLD, 21-FOLD, 69-OLD, 207-FOLD free ETPC (0.145µM)
[15] = initial 3 testing concentrations

COc1cc(N)c(Cl)cc1C(=O)NC1CCN(CCCOc2ccc(F)cc2)CC1OC (stereo not shown) [CISAPRIDE, Cisapride]
Free ETPC [1]: 0.003 µM | AMAX [2, 3]: 111 | AMAX percentage change compared to vehicle control [2, 3]: -2% | APD30 [2, 3]: 153 | APD30 percentage change compared to vehicle control [2, 3]: -14% | APD50 [2, 3]: 205 | APD50 percentage change compared to vehicle control [2, 3]: -13% | APD90 [2, 3]: 281 | APD90 percentage change compared to vehicle control [2, 3]: -10% | Alternans [2, 3]: 0.75 | Alternans percentage change compared to vehicle control [2, 3]: 14% | Beat Escape [2, 3]: 0 | Beat Escape percentage change compared to vehicle control [2, 3]: 0% | EADs [2, 3]: 0 | EADs percentage change compared to vehicle control [2, 3]: 0% | ERP [2, 3]: 0.45 | ERP percentage change compared to vehicle control [2, 3]: 3% | Max Dispersion [2, 3]: 3.28 | Max Dispersion percentage change compared to vehicle control [2, 3]: 11% | RMP [2, 3]: -94 | RMP percentage change compared to vehicle control [2, 3]: -1% | Refractoriness Escape [2, 3]: 0 | Refractoriness Escape percentage change compared to vehicle control [2, 3]: 0% | STV [2, 3]: 0.54 | STV percentage change compared to vehicle control [2, 3]: 22% | Triangulation [2, 3]: 127 | Triangulation percentage change compared to vehicle control [2, 3]: -3% | AMAX [2, 4]: 111 | AMAX percentage change compared to vehicle control [2, 4]: -2% | APD30 [2, 4]: 161 | APD30 percentage change compared to vehicle control [2, 4]: -11% | APD50 [2, 4]: 213 | APD50 percentage change compared to vehicle control [2, 4]: -10% | APD90 [2, 4]: 286 | APD90 percentage change compared to vehicle control [2, 4]: -9% | Alternans [2, 4]: 0.76 | Alternans percentage change compared to vehicle control [2, 4]: 16% | Beat Escape [2, 4]: 0 | Beat Escape percentage change compared to vehicle control [2, 4]: 0% | EADs [2, 4]: 0 | EADs percentage change compared to vehicle control [2, 4]: 0% | ERP [2, 4]: 0.44 | ERP percentage change compared to vehicle control [2, 4]: 1% | Max Dispersion [2, 4]: 3.20 | Max Dispersion percentage change compared to vehicle control [2, 4]: 8% | RMP [2, 4]: -96 | RMP percentage change compared to vehicle control [2, 4]: 0% | Refractoriness Escape [2, 4]: 0 | Refractoriness Escape percentage change compared to vehicle control [2, 4]: 0% | STV [2, 4]: 0.57 | STV percentage change compared to vehicle control [2, 4]: 42% | Triangulation [2, 4]: 124 | Triangulation percentage change compared to vehicle control [2, 4]: -5% | AMAX [2, 5]: 111 | AMAX percentage change compared to vehicle control [2, 5]: -1% | APD30 [2, 5]: 148 | APD30 percentage change compared to vehicle control [2, 5]: -17% | APD50 [2, 5]: 206 | APD50 percentage change compared to vehicle control [2, 5]: -13% | APD90 [2, 5]: 285 | APD90 percentage change compared to vehicle control [2, 5]: -8% | Alternans [2, 5]: 0.37 | Alternans percentage change compared to vehicle control [2, 5]: -44% | Beat Escape [2, 5]: 0 | Beat Escape percentage change compared to vehicle control [2, 5]: 0% | EADs [2, 5]: 0 | EADs percentage change compared to vehicle control [2, 5]: 0% | ERP [2, 5]: 0.48 | ERP percentage change compared to vehicle control [2, 5]: 11% | Max Dispersion [2, 5]: 2.73 | Max Dispersion percentage change compared to vehicle control [2, 5]: -8% | RMP [2, 5]: -99 | RMP percentage change compared to vehicle control [2, 5]: 4% | Refractoriness Escape [2, 5]: 0 | Refractoriness Escape percentage change compared to vehicle control [2, 5]: 0% | STV [2, 5]: 0.27 | STV percentage change compared to vehicle control [2, 5]: -31% | Triangulation [2, 5]: 137 | Triangulation percentage change compared to vehicle control [2, 5]: 4% | AMAX [2, 6]: 116 | AMAX percentage change compared to vehicle control [2, 6]: 3% | APD30 [2, 6]: 158 | APD30 percentage change compared to vehicle control [2, 6]: -12% | APD50 [2, 6]: 224 | APD50 percentage change compared to vehicle control [2, 6]: -6% | APD90 [2, 6]: 312 | APD90 percentage change compared to vehicle control [2, 6]: 0% | Alternans [2, 6]: 0.54 | Alternans percentage change compared to vehicle control [2, 6]: -17% | Beat Escape [2, 6]: 0 | Beat Escape percentage change compared to vehicle control [2, 6]: 0% | EADs [2, 6]: 0 | EADs percentage change compared to vehicle control [2, 6]: 0% | ERP [2, 6]: 0.49 | ERP percentage change compared to vehicle control [2, 6]: 14% | Max Dispersion [2, 6]: 2.75 | Max Dispersion percentage change compared to vehicle control [2, 6]: -7% | RMP [2, 6]: -102 | RMP percentage change compared to vehicle control [2, 6]: 7% | Refractoriness Escape [2, 6]: 0 | Refractoriness Escape percentage change compared to vehicle control [2, 6]: 0% | STV [2, 6]: 0.37 | STV percentage change compared to vehicle control [2, 6]: 3% | Triangulation [2, 6]: 154 | Triangulation percentage change compared to vehicle control [2, 6]: 17% | AMAX [2, 7]: 110 | AMAX percentage change compared to vehicle control [2, 7]: -2% | APD30 [2, 7]: 114 | APD30 percentage change compared to vehicle control [2, 7]: -10% | APD50 [2, 7]: 157 | APD50 percentage change compared to vehicle control [2, 7]: -8% | APD90 [2, 7]: 228 | APD90 percentage change compared to vehicle control [2, 7]: -6% | Alternans [2, 7]: 0.98 | Alternans percentage change compared to vehicle control [2, 7]: 18% | Beat Escape [2, 7]: 0 | Beat Escape percentage change compared to vehicle control [2, 7]: 0% | EADs [2, 7]: 0 | EADs percentage change compared to vehicle control [2, 7]: 0% | ERP [2, 7]: 0.47 | ERP percentage change compared to vehicle control [2, 7]: 1% | Max Dispersion [2, 7]: 4.08 | Max Dispersion percentage change compared to vehicle control [2, 7]: 3% | RMP [2, 7]: -94 | RMP percentage change compared to vehicle control [2, 7]: 0% | Refractoriness Escape [2, 7]: 0 | Refractoriness Escape percentage change compared to vehicle control [2, 7]: 0% | STV [2, 7]: 0.76 | Triangulation [2, 7]: 114 | Triangulation percentage change compared to vehicle control [2, 7]: -2% | AMAX [2, 8]: 109 | AMAX percentage change compared to vehicle control [2, 8]: -3% | APD30 [2, 8]: 115 | APD30 percentage change compared to vehicle control [2, 8]: -10% | APD50 [2, 8]: 156 | APD50 percentage change compared to vehicle control [2, 8]: -10% | APD90 [2, 8]: 225 | APD90 percentage change compared to vehicle control [2, 8]: -8% | Alternans [2, 8]: 0.99 | Alternans percentage change compared to vehicle control [2, 8]: 20% | Beat Escape [2, 8]: 0 | Beat Escape percentage change compared to vehicle control [2, 8]: 0% | EADs [2, 8]: 0 | EADs percentage change compared to vehicle control [2, 8]: 0% | ERP [2, 8]: 0.46 | ERP percentage change compared to vehicle control [2, 8]: 1% | Max Dispersion [2, 8]: 4.38 | Max Dispersion percentage change compared to vehicle control [2, 8]: 10% | RMP [2, 8]: -94 | RMP percentage change compared to vehicle control [2, 8]: 0% | Refractoriness Escape [2, 8]: 0 | Refractoriness Escape percentage change compared to vehicle control [2, 8]: 0% | STV [2, 8]: 0.66 | Triangulation [2, 8]: 110 | Triangulation percentage change compared to vehicle control [2, 8]: -6% | AMAX [2, 9]: 114 | AMAX percentage change compared to vehicle control [2, 9]: 1% | APD30 [2, 9]: 110 | APD30 percentage change compared to vehicle control [2, 9]: -13% | APD50 [2, 9]: 157 | APD50 percentage change compared to vehicle control [2, 9]: -9% | APD90 [2, 9]: 231 | APD90 percentage change compared to vehicle control [2, 9]: -5% | Alternans [2, 9]: 0.63 | Alternans percentage change compared to vehicle control [2, 9]: -24% | Beat Escape [2, 9]: 0 | Beat Escape percentage change compared to vehicle control [2, 9]: 0% | EADs [2, 9]: 0 | EADs percentage change compared to vehicle control [2, 9]: 0% | ERP [2, 9]: 0.50 | ERP percentage change compared to vehicle control [2, 9]: 10% | Max Dispersion [2, 9]: 2.55 | Max Dispersion percentage change compared to vehicle control [2, 9]: -36% | RMP [2, 9]: -100 | RMP percentage change compared to vehicle control [2, 9]: 6% | Refractoriness Escape [2, 9]: 0 | Refractoriness Escape percentage change compared to vehicle control [2, 9]: 0% | STV [2, 9]: 0.45 | Triangulation [2, 9]: 122 | Triangulation percentage change compared to vehicle control [2, 9]: 4% | AMAX [2, 10]: 114 | AMAX percentage change compared to vehicle control [2, 10]: 2% | APD30 [2, 10]: 114 | APD30 percentage change compared to vehicle control [2, 10]: -10% | APD50 [2, 10]: 168 | APD50 percentage change compared to vehicle control [2, 10]: -3% | APD90 [2, 10]: 254 | APD90 percentage change compared to vehicle control [2, 10]: 4% | Alternans [2, 10]: 0.75 | Alternans percentage change compared to vehicle control [2, 10]: -9% | Beat Escape [2, 10]: 0 | Beat Escape percentage change compared to vehicle control [2, 10]: 0% | EADs [2, 10]: 0 | EADs percentage change compared to vehicle control [2, 10]: 0% | ERP [2, 10]: 0.52 | ERP percentage change compared to vehicle control [2, 10]: 13% | Max Dispersion [2, 10]: 3.75 | Max Dispersion percentage change compared to vehicle control [2, 10]: -6% | RMP [2, 10]: -101 | RMP percentage change compared to vehicle control [2, 10]: 7% | Refractoriness Escape [2, 10]: 0 | Refractoriness Escape percentage change compared to vehicle control [2, 10]: 0% | STV [2, 10]: 0.56 | Triangulation [2, 10]: 140 | Triangulation percentage change compared to vehicle control [2, 10]: 20%

CC(CC(c1ccccc1)c1ccccc1)NC(C)(C)C (stereo not shown) [TERODILINE, Terodiline]
Free ETPC [1]: 0.145 µM | EADs incidence [2, 11]: 0% | Refractoriness Escape incidence [2, 11]: 0% | EADs incidence [2, 12]: 0% | Refractoriness Escape incidence [2, 12]: 0% | STV ([2]; 2 Hz, first concentration): 0.9 | STV ([2]; 2 Hz, third concentration): 2.2 | STV increase ([2]; 2 Hz, third versus first concentration): 144% | EAD induction ([2]; any testing concentration, 1 and 2 Hz): did not induce EAD | AMAX [2, 13]: 111 mV and 110 mV and 108 mV and 102 mV | APD30 [2, 13]: 151 ms and 142 ms and 126 ms and 113 ms | APD50 [2, 13]: 200 ms and 192 ms and 178 ms and 164 ms | APD90 [2, 13]: 270 ms and 268 ms and 293 ms | Beat Escape [2, 13]: 1 | EADs [2, 13]: 0 | ERP [2, 13]: 0.44 and 0.45 and 0.48 and 0.49 | Refractoriness Escape [2, 13]: 0 | Triangulation [2, 13]: 119 and 126 and 144 and 180 | AMAX [2, 14]: 109 mV and 108 mV and 106 mV and 100 mV | APD30 [2, 14]: 115 ms and 108 ms and 100 ms and 104 ms | APD50 [2, 14]: 157 ms and 150 ms and 140 ms and 151 ms | APD90 [2, 14]: 225 ms and 223 ms and 228 ms and 276 ms | Beat Escape [2, 14]: 1 | EADs [2, 14]: 0 | ERP [2, 14]: 0.45 and 0.47 and 0.48 | Refractoriness Escape [2, 14]: 0 | Triangulation [2, 14]: 110 and 115 and 128 and 172 | effect on amplitude of AP ([2]; especially at 30 μM): decreased the amplitude of AP | change in APD90 [2, 15]: less than 10% | change in triangulation [2, 15]: ≥ 20%
